1 molecule from patent publication US20260234566A1, “CELL LINES FOR EXPRESSION OF LHCG RECEPTOR” (Ares Trading S.A., priority 2023, published 2026) can be followed below.

Test [1] deals with adenylate cyclase (AC). The test is described as follows: Reporter Gene Assay with forskolin stimulation, HEK 293-T LHCGR Luciferase. In kind it is cell-based, human. The following applies: single wells. As for the experimental part: (§1) Second transfection efficiency evaluation. In order to assess the second transfection efficiency, a Reporter Gene Assay (RGA) was performed. […] HEK 293-T LHCGR Luciferase cells were stimulated with forskolin. As described in literature, forskolin is a diterpene able to activate the adenylate cyclase (AC) allowing the increasing of intracellular cAMP in a wide variety of cell types. Exploiting forskolin ability, the RGA assay enables the evaluation of Reporter Gene Transcription in response to cAMP accumulation without involving the LHCG receptor. The luminescence emitted after Reporter Gene Transcription, was quantified using reagents available on the market. HEK 293-T LHCGR Luciferase and HEK 293-T without transfection were seeded in a 96 well plate and stimulated with different concentration of forskolin. After incubation, the ONE-Glo EX Luciferase assay system (Promega, E8120) was added in each well and, after 10 minutes shaking, results were acquired using the plate reader. Second transfection stability. HEK 293-T LHCGR Luciferase were stimulated with forskolin 4 μM or left unstimulated. Results were reported as a fold change of treated cells over unstimulated control. All % CVs were calculated among fold changes obtained for the three banks and resulted below 25%. The mean and the SD of the 3 banks were calculated and used to generate the graphs in FIG. 4B.

The test system of test [2] is adenylate cyclase (AC). The experiment in a line: Reporter Gene Assay with forskolin stimulation, HEK 293-T WT. The note with it: single wells. The test is classed as cell-based, human. As for the experimental part: as §1, with “reader.” for “reader. Second transfection stability. HEK 293-T LHCGR Luciferase were stimulated with forskolin 4 μM or left unstimulated. Results were reported as a fold change of treated cells over unstimulated control. All % CVs were calculated among fold changes obtained for the three banks and resulted below 25%. The mean and the SD of the 3 banks were calculated and used to generate the graphs in FIG. 4B.”
In general terms: A reporter such as luciferase makes a cellular process visible.

“And” between values parts separate entries of the source, which are not always exact repeats. Equal values may be shown once.

`C=C[C@@]1(C)CC(=O)[C@]2(O)[C@@]3(C)[C@@H](O)CCC(C)(C)[C@@H]3[C@H](O)[C@H](OC(C)=O)[C@@]2(C)O1` [Forskolin, forskolin]: the “Luminescence values expressed as RLUs” value in the test on adenylate cyclase (AC) [1] (forskolin 0.004 μM) was 4221 RLUs and 4333 RLUs and 3899 RLUs; in the test with adenylate cyclase (AC) [1] (forskolin 0.04 μM), 7547 RLUs and 6804 RLUs and 7636 RLUs; with adenylate cyclase (AC) [1] (forskolin 0.4 μM) it was 65001 RLUs and 62733 RLUs and 72165 RLUs; in the test on adenylate cyclase (AC) [1] (forskolin 4 μM), 310180 RLUs and 299010 RLUs and 303780 RLUs; in the test with adenylate cyclase (AC) [1] (forskolin 40 μM) it was 374090 RLUs and 378740 RLUs and 387970 RLUs; in the test with adenylate cyclase (AC) [1] (forskolin 400 μM), 205580 RLUs and 197090 RLUs and 195210 RLUs. Besides, the “Luminescence values expressed as RLUs” value with adenylate cyclase (AC) [2] (forskolin 0.004 μM) is 92 RLUs and 61 RLUs and 62 RLUs; in the test with adenylate cyclase (AC) [2] (forskolin 0.04 μM) it was 124 RLUs and 88 RLUs and 68 RLUs; with adenylate cyclase (AC) [2] (forskolin 400 μM), 227 RLUs and 130 RLUs and 124 RLUs.
